Measurements as given in patent publication US20240384268A1, “Oligonucleotides” (Hudson Institute of Medical Research, priority 2021, published 2024).
Entries after “also recorded” stand apart in the source; their conditions may differ. In the oligonucleotide strings, read from the 5' end, every base follows the letter of its sugar. An asterisk marks phosphorothioate; unmarked linkages are phosphodiester. Other units and linkages are bracketed, terminal groups are in braces. A string of capitals states the bases alone. d = 2'-deoxy (DNA); m = 2'-O-methyl

Experiments:
[1] = molecular target: T1, Recombinant full-length human cGAS (Homo sapiens, UniProt Q8N884); assay: cGAS in vitro assay and cGAMP ELISA; assay type: biochemical; settings: 2.3 μM ISD70, 40 min; for cGAMP production driven by ISD70 (in words): 0.5 μM oligonucleotide
T1 construct: Recombinant full-length human cGAS (Cayman, #22810); purchased Cayman #22810
Description: 0.8 μg of Recombinant full-length human cGAS (Cayman, #22810) was used per single reaction in a 200 μl volume with 80 mM Tris-HCl (pH 7.5), 200 mM NaCl, 20 μM ZnCl2, 20 mM MgCl2, 0.25 mM GTP (Thermofisher #R0441) and 0.25 mM ATP (Thermofisher #R0461), with 20 μg of ISD70 (freshly annealed at 1 μg/l in PBS), and 2 μl C2-Mut1/A151 diluted in TE buffer (to get 0.5, 2 or 10 μM ODN concentration in 200 l). After 40 min at 37° C., 2.5 mM EDTA was added to each tube to stop the enzymatic reaction and the samples were either snap frozen and stored at −80° C. or directly processed for cGAMP ELISA. cGAMP levels were measured with the DetectX Direct 2′,3′-Cyclic GAMP Enzyme Immunoassay Kit (Arbor Assays), according to the manufacturer's protocol. Briefly, 50 μL of in vitro reaction were added per well of the kit microplate with 50 μL Assay buffer, 25 μL conjugate, and 25 μL Antibody per well, prior to a minimum of 2 h incubation. The standards were prepared with serial-dilution in Assay buffer. Quantification of cGAMP levels was performed on a Fluostar OPTIMA (BMG LABTECH) plate-reader at 450 nm.

mouse Tlr9 = molecular target: T2, mouse Tlr9 (Mus musculus, UniProt Q9EQU3); assay: ODN 1826-driven TNF-α in immortalised mouse BMDMs; assay type: cell-based; settings: iBMDMs; 250-500 nM ASO; ODN 1826 500 nM overnight; listed as C2-Mutl
T2 construct: endogenous in cells; host or cells: immortalised wild-type mouse BMDMs
T2 sequence (Q9EQU3 26-1032): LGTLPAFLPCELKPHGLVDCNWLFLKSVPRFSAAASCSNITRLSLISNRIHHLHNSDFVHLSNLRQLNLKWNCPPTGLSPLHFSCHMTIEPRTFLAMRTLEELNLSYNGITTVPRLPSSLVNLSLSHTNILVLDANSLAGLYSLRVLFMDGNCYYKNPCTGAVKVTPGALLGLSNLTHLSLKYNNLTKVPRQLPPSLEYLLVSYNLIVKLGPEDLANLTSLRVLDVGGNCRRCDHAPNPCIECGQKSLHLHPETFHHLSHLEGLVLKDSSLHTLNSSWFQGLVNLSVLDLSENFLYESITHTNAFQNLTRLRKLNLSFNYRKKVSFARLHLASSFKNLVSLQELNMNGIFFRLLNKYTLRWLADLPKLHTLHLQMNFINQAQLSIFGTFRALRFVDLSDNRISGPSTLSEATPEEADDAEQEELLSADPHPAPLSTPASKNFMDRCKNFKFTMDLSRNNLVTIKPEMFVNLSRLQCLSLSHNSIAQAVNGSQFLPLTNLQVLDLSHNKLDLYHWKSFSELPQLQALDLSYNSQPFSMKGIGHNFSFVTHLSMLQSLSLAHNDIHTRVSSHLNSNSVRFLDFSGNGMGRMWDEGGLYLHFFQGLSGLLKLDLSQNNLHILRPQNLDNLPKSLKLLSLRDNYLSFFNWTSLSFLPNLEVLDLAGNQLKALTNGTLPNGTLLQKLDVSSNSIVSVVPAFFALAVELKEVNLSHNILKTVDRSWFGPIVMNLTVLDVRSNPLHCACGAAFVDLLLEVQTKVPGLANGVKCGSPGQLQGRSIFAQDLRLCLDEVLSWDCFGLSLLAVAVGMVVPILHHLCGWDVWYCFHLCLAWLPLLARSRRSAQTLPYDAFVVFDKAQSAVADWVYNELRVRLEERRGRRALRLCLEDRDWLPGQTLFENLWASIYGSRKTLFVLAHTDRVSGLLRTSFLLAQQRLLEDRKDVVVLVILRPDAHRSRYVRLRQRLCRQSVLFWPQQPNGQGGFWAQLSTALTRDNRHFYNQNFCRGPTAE

TLR4 = assay: LPS-driven IP-10 in MG-63 cells and immortalised mouse BMDMs; assay type: cell-based, human; settings: 500 nM ASO 6 h; LPS 1 μg/ml overnight
TLR2/1 = molecular target: T3, TLR2/1 (Mus musculus, UniProt Q9EPQ1+Q9QUN7); assay: PAM3CSK4-driven TNF-α in immortalised mouse BMDMs; assay type: cell-based; settings: iBMDMs; 500 nM ASO 6 h; PAM3C 100 ng/ml
T3 construct: endogenous in cells; host or cells: immortalised wild-type mouse BMDMs

[2] = tested on: primary fibroblast-like synoviocytes (FLS) and bone marrow-derived MSCs; assay: Senescence β-galactosidase staining of primary FLS and MSCs; settings: naked ASO 1 to 5 μM for one to two weeks; listed as C2-Mutl

T1 sequence (Q8N884 whole entry): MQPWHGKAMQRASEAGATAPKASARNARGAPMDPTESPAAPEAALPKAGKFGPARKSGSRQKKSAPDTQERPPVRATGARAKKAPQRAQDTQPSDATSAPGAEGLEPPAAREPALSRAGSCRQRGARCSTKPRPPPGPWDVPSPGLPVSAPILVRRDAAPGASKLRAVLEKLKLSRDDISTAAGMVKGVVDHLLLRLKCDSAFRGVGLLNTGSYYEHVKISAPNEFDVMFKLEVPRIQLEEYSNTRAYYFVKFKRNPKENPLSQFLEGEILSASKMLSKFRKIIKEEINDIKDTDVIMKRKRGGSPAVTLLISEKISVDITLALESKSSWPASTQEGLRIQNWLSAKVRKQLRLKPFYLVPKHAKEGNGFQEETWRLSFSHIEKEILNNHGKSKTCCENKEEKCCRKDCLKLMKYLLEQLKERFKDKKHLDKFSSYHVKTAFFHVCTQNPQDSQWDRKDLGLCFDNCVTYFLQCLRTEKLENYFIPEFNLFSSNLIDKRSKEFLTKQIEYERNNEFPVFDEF
T3 sequence (Q9QUN7 25-784): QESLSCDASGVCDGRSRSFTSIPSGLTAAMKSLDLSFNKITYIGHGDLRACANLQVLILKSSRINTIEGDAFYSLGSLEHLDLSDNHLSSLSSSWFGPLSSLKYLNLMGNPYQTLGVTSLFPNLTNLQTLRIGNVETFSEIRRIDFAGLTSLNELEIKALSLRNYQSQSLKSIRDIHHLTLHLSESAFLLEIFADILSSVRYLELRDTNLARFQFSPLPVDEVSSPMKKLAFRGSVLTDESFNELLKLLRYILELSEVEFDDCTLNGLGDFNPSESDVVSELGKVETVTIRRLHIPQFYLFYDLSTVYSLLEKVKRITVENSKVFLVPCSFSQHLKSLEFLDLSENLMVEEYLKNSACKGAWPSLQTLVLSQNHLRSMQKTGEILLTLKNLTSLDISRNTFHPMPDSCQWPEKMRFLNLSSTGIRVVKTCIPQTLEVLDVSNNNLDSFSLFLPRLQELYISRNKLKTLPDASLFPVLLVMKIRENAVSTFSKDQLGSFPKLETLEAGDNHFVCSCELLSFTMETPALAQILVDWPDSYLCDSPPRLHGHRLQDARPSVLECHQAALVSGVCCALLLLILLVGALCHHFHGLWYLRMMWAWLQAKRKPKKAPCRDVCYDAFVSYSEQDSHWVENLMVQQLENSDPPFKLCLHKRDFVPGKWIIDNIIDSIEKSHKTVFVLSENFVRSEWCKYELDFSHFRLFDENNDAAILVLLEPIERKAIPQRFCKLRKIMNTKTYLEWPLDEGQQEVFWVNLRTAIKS
T3 sequence (Q9EPQ1 26-795): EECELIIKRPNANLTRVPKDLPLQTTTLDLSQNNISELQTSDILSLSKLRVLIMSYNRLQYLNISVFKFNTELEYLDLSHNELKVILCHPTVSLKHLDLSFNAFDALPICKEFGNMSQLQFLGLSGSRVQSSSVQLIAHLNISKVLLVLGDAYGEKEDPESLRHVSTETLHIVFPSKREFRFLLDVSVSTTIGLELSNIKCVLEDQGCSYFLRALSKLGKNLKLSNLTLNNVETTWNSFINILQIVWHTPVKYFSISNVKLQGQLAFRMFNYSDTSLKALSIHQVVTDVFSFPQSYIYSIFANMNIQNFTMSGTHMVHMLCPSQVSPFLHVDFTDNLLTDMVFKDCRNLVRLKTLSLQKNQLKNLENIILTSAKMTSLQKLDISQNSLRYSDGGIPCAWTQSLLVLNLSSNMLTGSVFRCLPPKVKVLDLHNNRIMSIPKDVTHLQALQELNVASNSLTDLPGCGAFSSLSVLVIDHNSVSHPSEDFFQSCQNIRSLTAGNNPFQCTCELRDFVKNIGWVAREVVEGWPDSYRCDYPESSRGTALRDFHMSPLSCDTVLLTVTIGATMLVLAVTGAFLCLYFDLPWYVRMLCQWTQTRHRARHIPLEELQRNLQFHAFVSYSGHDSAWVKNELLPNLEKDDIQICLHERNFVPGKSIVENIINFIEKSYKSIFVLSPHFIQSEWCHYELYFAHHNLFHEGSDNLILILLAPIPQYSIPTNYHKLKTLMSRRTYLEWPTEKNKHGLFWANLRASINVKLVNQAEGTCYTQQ

| Substance | cGAMP production driven by ISD70 (in words) [1] | inhibitory activity on cGAMP production relative to A151 ([1]; 2 μM oligonucleotide) | inhibition of mouse TLR9 sensing of CpG ODN (TNF-α; in words) (mouse Tlr9) | IP-10 production driven by LPS (in words) (TLR4) | TNF-α production upon PAM3CSK4 (in words) (TLR2/1) | senescence-associated β-galactosidase (SAB) positive cells (in words) [2] |
| --- | --- | --- | --- | --- | --- | --- |
| T*T*A* G*G*G* T*T*A* G*G*G* T*T*A* G*G*G* T*T*A* G*G*G [A151, reference compound] | similarly reduced cGAMP production | – | – | – | – | – |
| mG*mC*mG*mG*mU*A*T*C*C*A*T*G*T*C*C*mC*mA*mG*mG*mC (mG*mC*mG*mG*mU*dA*dT*dC*dC*dA*dT*dG*dT*dC*dC*mC*mA*mG*mG*mC; antisense) [C2-Mut1] | similarly reduced cGAMP production | about 2 fold | significantly decreased sensing of the CpG ODN 1826; also recorded: very potent inhibitor of mouse TLR9 | did not significantly affect IP-10 production | did not impact production of TNF-α | senescence was strongly reduced; also recorded: more potent inhibitor of SAB than A151 |
